Tested on: 843126-344-R-J1-PDC complex spheroid viability
Test: Anticancer human tumor 843126-344-R-J1-PDC patient-derived melanoma cell line growth inhibition [POLQ]
Details: for IC50: curve of first compound; for viability, T/C: stronger effect = lower value; active = viability on the fitted dose curve at most 10% of control; inactive = the rest
In short: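 Three-cell-type spheroids modelling solid tumor plus stroma served as the readout system; POL inhibitors were tested individually and in combination, concentration ranges set by clinical Cmax where known.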
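For viability, T/C in this document: spheroids exposed to drugs for seven days before readout.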

COc1cc2cc(C(=O)CCC(=O)O)sc2cc1OC + COC1C(OC(N)=O)C(O)C(Oc2ccc3c(O)c(NC(=O)c4ccc(O)c(CC=C(C)C)c4)c(=O)oc3c2C)OC1(C)C
inactive: viability, T/C (second compound 0.0316 µM, first compound 0.0316 µM) 93.2% | viability, T/C (second compound 0.0316 µM, first compound 0.1 µM) 82.8% | viability, T/C (second compound 0.0316 µM, first compound 0.316 µM) 99.1% | viability, T/C (second compound 0.0316 µM, first compound 1 µM) 89.6% | viability, T/C (second compound 0.0316 µM, first compound 3.16 µM) 94.1% | viability, T/C (second compound 0.0316 µM, first compound 10 µM) 87.2% | viability, T/C (second compound 0.1 µM, first compound 0.0316 µM) 97.5% | viability, T/C (second compound 0.1 µM, first compound 0.1 µM) 112% | viability, T/C (second compound 0.1 µM, first compound 0.316 µM) 103% | viability, T/C (second compound 0.1 µM, first compound 1 µM) 91% | viability, T/C (second compound 0.1 µM, first compound 3.16 µM) 108% | viability, T/C (second compound 0.1 µM, first compound 10 µM) 94.4% | viability, T/C (second compound 0.316 µM, first compound 0.0316 µM) 91.8% | viability, T/C (second compound 0.316 µM, first compound 0.1 µM) 104% | viability, T/C (second compound 0.316 µM, first compound 0.316 µM) 121% | viability, T/C (second compound 0.316 µM, first compound 1 µM) 117% | viability, T/C (second compound 0.316 µM, first compound 3.16 µM) 89% | viability, T/C (second compound 0.316 µM, first compound 10 µM) 84.4% | viability, T/C (second compound 1 µM, first compound 0.0316 µM) 96.1% | viability, T/C (second compound 1 µM, first compound 0.1 µM) 92.7% | viability, T/C (second compound 1 µM, first compound 0.316 µM) 87.3% | viability, T/C (second compound 1 µM, first compound 1 µM) 85.6% | viability, T/C (second compound 1 µM, first compound 3.16 µM) 96% | viability, T/C (second compound 1 µM, first compound 10 µM) 87.2% | viability, T/C (second compound 3.16 µM, first compound 0.0316 µM) 97.3% | viability, T/C (second compound 3.16 µM, first compound 0.1 µM) 93.5% | viability, T/C (second compound 3.16 µM, first compound 0.316 µM) 81.4% | viability, T/C (second compound 3.16 µM, first compound 1 µM) 108% | viability, T/C (second compound 3.16 µM, first compound 3.16 µM) 97.7% | viability, T/C (second compound 3.16 µM, first compound 10 µM) 109% | viability, T/C (second compound 10 µM, first compound 0.0316 µM) 98.8% | viability, T/C (second compound 10 µM, first compound 0.1 µM) 92.7% | viability, T/C (second compound 10 µM, first compound 0.316 µM) 97.8% | viability, T/C (second compound 10 µM, first compound 1 µM) 110% | viability, T/C (second compound 10 µM, first compound 3.16 µM) 107% | viability, T/C (second compound 10 µM, first compound 10 µM) 90.9%
> 10 µM: IC50 (second compound 0.0316 µM) | IC50 (second compound 0.1 µM) | IC50 (second compound 0.316 µM) | IC50 (second compound 1 µM) | IC50 (second compound 3.16 µM) | IC50 (second compound 10 µM)

Reference: PubChem BioAssay AID1963837 (Molecular Pharmacology Branch, DTP, NCI, 2024)
